One block for each compound: values may come before it.
Assays:
[1] = target: T1, Phosphatidylinositol 4,5-bisphosphate 3-kinase catalytic subunit delta isoform (Homo sapiens, UniProt O00329)
T1 sequence (O00329 whole entry): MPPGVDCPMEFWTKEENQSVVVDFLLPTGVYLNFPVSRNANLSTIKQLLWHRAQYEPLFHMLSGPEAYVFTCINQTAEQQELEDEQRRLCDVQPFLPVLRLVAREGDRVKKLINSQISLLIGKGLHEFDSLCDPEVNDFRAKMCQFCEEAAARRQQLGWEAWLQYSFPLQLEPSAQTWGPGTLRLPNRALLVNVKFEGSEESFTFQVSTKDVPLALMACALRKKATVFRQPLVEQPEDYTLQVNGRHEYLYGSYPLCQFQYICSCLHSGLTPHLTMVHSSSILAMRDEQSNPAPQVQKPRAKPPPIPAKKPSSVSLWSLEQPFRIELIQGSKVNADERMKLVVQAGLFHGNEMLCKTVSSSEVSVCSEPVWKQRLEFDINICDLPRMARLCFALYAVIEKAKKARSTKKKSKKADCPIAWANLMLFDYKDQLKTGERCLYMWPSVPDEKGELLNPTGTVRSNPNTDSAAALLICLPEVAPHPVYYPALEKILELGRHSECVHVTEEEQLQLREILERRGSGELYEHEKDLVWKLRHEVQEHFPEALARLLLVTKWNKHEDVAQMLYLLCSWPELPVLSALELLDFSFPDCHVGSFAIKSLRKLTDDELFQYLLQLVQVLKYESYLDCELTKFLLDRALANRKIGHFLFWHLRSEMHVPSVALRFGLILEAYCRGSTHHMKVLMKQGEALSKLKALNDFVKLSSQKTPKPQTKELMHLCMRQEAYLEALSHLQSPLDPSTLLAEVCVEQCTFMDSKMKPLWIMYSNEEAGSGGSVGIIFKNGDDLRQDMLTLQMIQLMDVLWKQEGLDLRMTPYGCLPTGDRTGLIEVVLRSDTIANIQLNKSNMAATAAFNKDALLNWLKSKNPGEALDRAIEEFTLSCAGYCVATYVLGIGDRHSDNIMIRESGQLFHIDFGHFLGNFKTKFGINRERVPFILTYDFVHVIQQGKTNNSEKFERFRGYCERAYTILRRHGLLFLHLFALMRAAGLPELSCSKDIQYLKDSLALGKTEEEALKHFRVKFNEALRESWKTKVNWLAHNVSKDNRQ

[2] = target: T2, Phosphatidylinositol 4,5-bisphosphate 3-kinase catalytic subunit gamma isoform (Homo sapiens, UniProt P48736); test: Inhibition of PI3Kgamma-mediated Akt phosphorylation in T cells by flow cytometry; type: cell-based, T-cell
Target sequence in this assay (P48736 whole entry, canonical isoform): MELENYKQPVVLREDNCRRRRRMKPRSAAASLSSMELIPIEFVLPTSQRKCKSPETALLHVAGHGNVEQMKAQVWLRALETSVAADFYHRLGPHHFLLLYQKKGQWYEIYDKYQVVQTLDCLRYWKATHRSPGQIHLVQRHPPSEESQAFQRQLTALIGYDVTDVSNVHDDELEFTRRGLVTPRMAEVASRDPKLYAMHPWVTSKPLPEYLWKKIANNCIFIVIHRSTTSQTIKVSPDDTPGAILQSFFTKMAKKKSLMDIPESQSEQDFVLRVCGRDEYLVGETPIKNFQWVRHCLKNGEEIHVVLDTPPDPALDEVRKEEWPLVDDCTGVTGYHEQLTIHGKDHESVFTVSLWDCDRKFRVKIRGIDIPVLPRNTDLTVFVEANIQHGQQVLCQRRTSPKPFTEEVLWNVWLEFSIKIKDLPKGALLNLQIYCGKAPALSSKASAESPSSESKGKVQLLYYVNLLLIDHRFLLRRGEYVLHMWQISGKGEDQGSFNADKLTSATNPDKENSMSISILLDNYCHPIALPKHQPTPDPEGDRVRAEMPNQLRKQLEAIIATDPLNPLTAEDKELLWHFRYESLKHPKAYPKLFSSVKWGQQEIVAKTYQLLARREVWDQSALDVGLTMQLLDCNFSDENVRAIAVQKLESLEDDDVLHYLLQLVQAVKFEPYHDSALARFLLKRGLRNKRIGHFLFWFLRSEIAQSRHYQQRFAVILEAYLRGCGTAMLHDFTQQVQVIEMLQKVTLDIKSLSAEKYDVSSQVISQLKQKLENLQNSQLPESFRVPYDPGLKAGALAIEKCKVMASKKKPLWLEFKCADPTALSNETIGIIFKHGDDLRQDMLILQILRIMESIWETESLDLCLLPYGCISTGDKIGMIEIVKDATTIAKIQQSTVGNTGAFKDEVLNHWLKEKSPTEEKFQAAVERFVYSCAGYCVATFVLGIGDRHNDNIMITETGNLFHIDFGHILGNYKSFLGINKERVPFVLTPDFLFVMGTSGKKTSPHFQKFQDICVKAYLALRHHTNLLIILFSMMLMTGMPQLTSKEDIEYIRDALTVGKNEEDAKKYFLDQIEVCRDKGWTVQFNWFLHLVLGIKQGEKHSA

[3] = target: T1, Phosphatidylinositol 4,5-bisphosphate 3-kinase catalytic subunit delta isoform; test: Inhibition of PI3Kdelta-mediated AKT phosphorylation in human Ramos cells by ELISA; type: cell-based
[4] = target: T1, Phosphatidylinositol 4,5-bisphosphate 3-kinase catalytic subunit delta isoform; test: Inhibition of PI3Kdelta in human whole blood assessed as inhibition of CD69 production in B lymphocyte by immunoassay
[5] = Clearance in Han-Wistar rat; type: ADME, organism-based; details: in vivo
[6] = Oral bioavailability in Han-Wistar rat; type: ADME, organism-based; details: in vivo
[7] = target: T1, Phosphatidylinositol 4,5-bisphosphate 3-kinase catalytic subunit delta isoform; test: Inhibition of PI3Kdelta in neutrophil assessed as inhibition of superoxide production by cell-based assay
[8] = system: Rattus norvegicus; test: Antiinflammatory activity in rat assessed as inhibition of Streptococcal cell wall-induced rat paw edema; type: functional; details: read-out: ID50 (the source's name)
[9] = system: Rattus norvegicus; test: Antiinflammatory activity in rat assessed as inhibition of Streptococcal cell wall-induced rat paw edema at 30 mg/kg; type: functional
[10] = target: T1, Phosphatidylinositol 4,5-bisphosphate 3-kinase catalytic subunit delta isoform; test: Inhibition of PI3Kdelta in human PBMC
[11] = target: T1, Phosphatidylinositol 4,5-bisphosphate 3-kinase catalytic subunit delta isoform; test: Inhibition of PI3Kdelta by cell-based assay
[12] = target: Serine/threonine-protein kinase mTOR (Homo sapiens) (UniProt P42345); test: Inhibition of mTOR
[13] = target: T2, Phosphatidylinositol 4,5-bisphosphate 3-kinase catalytic subunit gamma isoform; test: Inhibition of PI3Kgamma at 1 uM
Target sequence in this assay (P48736 whole entry, looked up, canonical isoform): as the sequence (P48736 whole entry, canonical isoform) above

[14] = target: Phosphatidylinositol 4,5-bisphosphate 3-kinase catalytic subunit beta isoform (Homo sapiens) (UniProt P42338); test: Inhibition of PI3Kbeta at 1 uM
Chain of Phosphatidylinositol 4,5-bisphosphate 3-kinase catalytic subunit beta isoform (Homo sapiens) (P42338 whole entry, looked up, canonical isoform): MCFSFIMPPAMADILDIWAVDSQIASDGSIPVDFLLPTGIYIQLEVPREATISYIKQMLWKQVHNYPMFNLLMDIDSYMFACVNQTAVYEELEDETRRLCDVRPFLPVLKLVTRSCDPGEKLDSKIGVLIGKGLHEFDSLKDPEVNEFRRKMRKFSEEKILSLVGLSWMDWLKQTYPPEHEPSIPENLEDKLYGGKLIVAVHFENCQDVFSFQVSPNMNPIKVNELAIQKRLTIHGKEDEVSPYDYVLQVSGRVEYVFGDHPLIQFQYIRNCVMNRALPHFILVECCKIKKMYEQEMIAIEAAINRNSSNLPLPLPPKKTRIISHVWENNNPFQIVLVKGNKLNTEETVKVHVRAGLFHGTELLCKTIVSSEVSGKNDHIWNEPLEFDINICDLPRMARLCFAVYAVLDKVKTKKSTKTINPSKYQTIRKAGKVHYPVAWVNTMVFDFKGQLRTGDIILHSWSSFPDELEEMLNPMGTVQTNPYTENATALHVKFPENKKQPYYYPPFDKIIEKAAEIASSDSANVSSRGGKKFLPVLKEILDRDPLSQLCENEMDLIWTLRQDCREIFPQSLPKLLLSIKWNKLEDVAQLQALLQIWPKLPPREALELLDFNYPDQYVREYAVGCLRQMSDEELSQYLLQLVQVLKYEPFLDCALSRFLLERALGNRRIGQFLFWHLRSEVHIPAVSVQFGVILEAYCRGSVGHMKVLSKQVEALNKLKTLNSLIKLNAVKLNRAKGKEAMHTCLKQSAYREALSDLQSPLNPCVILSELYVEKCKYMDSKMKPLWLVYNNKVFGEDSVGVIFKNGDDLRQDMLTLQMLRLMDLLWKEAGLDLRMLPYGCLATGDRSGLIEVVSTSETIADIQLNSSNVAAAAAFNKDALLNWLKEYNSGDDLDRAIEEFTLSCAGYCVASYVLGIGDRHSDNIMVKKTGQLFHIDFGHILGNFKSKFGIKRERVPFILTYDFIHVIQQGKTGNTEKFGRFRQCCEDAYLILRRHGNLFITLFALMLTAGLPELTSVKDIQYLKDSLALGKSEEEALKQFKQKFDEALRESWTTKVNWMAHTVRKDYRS

[15] = target: Phosphatidylinositol 4,5-bisphosphate 3-kinase catalytic subunit alpha isoform (Homo sapiens) (UniProt P42336); test: Inhibition of PI3Kalpha at 1 uM
Chain of Phosphatidylinositol 4,5-bisphosphate 3-kinase catalytic subunit alpha isoform (Homo sapiens) (P42336 whole entry, canonical isoform): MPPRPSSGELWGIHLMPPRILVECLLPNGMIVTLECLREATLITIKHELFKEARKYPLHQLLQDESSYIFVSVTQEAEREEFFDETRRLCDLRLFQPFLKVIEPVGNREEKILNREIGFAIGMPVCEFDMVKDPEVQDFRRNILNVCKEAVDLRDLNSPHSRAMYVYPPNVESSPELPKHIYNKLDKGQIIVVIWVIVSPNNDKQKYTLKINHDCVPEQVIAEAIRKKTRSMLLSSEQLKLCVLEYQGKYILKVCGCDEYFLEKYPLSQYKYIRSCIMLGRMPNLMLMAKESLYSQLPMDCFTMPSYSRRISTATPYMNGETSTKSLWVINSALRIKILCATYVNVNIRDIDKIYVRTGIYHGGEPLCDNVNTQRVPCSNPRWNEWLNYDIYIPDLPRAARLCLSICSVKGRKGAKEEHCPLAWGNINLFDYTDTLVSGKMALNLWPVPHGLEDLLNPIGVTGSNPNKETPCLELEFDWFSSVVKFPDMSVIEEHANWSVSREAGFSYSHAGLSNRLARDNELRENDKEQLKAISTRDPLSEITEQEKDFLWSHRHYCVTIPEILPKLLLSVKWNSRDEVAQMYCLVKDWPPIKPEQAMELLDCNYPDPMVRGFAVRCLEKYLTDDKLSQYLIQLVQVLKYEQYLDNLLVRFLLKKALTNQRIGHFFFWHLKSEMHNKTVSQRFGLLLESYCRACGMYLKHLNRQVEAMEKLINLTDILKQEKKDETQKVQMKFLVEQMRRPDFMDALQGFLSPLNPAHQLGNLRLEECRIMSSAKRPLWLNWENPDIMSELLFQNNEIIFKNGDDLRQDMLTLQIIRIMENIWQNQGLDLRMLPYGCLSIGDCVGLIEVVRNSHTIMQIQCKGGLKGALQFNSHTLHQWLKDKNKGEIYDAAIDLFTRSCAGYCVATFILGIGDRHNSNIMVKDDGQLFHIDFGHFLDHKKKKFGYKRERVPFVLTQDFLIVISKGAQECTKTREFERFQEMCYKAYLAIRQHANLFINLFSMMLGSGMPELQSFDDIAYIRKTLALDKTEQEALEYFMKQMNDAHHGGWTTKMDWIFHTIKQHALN

[16] = target: T3, Phosphatidylinositol 4,5-bisphosphate 3-kinase catalytic subunit delta isoform (Homo sapiens) (UniProt O00329); test: Inhibition of PI3Kdelta-mediated Akt phosphorylation at 10 uM by cell-based assay
T3 sequence (whole entry): T1 sequence (O00329 whole entry)

SMILES: CN1CCOC(C(=O)Nc2cc(-c3cccc4[nH]ccc34)cc3[nH]ncc23)C1 (stereo not given)
- pIC50 [1]: >= 5
- IC50 [2]: ≤ 1 µM

SMILES: CC(=O)Nc1ccc(C(=O)NC2=Nc3cc(N4CCOCC4)ccc3C3=NCCN23)cn1
- IC50 ([1]; read-out: IC50): < 0.1 µM

SMILES: Cc1cccn2c(C(C)Nc3ncnc4[nH]cnc34)c(-c3cc(F)cc(F)c3)nc12 (stereo not given)
- IC50 ([1]; read-out: IC50): < 0.2 µM
- IC50 [3]: < 0.5 µM

SMILES: CC(Nc1ncnc2[nH]cnc12)c1c(C#N)c2ccc(Cl)cc2n1-c1cccc(F)c1 (stereo not given)
- IC50 ([1]; read-out: IC50): < 0.05 µM

SMILES: COc1ccc(-c2cc(-c3ncc(CN4C[C@@H](C)O[C@@H](C)C4)o3)c3cn[nH]c3c2)cc1NS(C)(=O)=O
- IC50 ([1]; read-out: pIC50 (converted)): < 0.1 µM

SMILES: O=C(Nc1nn[nH]n1)c1cnc(N2CCOCC2)nc1OC1CCCCCC1
- IC50 ([1]; read-out: IC50): 0.197 µM
- ED50 [8]: 16.3 mg/kg
- inhibition in vivo at 30 mg/kg [9]: 52%

SMILES: CC(=O)Nc1nc2c(s1)-c1c(c(C3CC3)nn1C1CCC(C(=O)N[C@H]3CC[C@H](N4CCCC4)CC3)CC1)CC2 (stereo not given in full)
- IC50 ([1]; read-out: IC50): < 0.6 µM

SMILES: Cc1ccccc1-n1c(Cn2nc(-c3cc(O)cc(F)c3)c3c(N)ncnc32)nc2scc(C)c2c1=O
- IC50 ([1]; read-out: IC50): < 0.1 µM
- IC50 [11]: < 0.1 µM

SMILES: CC(=O)Nc1nc2ccc(-c3nn(C4CCCC4)c4ncnc(N)c34)cc2s1
- IC50 ([1]; read-out: IC50): < 0.05 µM
- INH [12]: < 0.05 µM

SMILES: CC(c1oc2ccccc2c(=O)c1-c1cccc(F)c1)n1cnc2c(N)ncnc21 (stereo not given)
- IC50 ([1]; read-out: IC50): < 0.25 µM
- inhibition [13]: < 25%
- inhibition [14]: < 25%
- inhibition [15]: < 25%

SMILES: CC(C)(Oc1cccc2[nH]c(-c3nccc(-c4cncc(S(N)(=O)=O)c4)n3)cc12)C(=O)O
- inhibition [16]: > 95%

Results, then the compound that gave them:

- IC50 ([1]; read-out: pIC50 (converted)): < 0.1 µM
SMILES: CC(C)N1CCN(Cc2cnc(-c3cc(-c4cccc5[nH]ccc45)cc4[nH]ncc34)o2)CC1 [NEMIRALISIB]

- IC50 ([1]; read-out: IC50): < 0.03 µM
SMILES: OCCn1cnc2c(-n3c(C(F)F)nc4ccccc43)nc(N3CCOCC3)nc21

- Ki [1]: 0.01 µM
SMILES: CCNC(=O)Nc1nc2ccc(-c3cncc(C(F)(F)F)c3)cc2s1

- Ki [1]: 0.003 µM
SMILES: CCOC(=O)CCNC(=O)Nc1nc2c(s1)CN(c1cnc(Cl)c(OC)c1)CC2

- IC50 ([1]; read-out: IC50): 0.016 µM
SMILES: Cc1nc(NC(=O)NCCC(=O)OC(C)(C)C)sc1-c1ccc(S(C)(=O)=O)c(F)c1

- IC50 ([1]; read-out: IC50): < 0.1 µM
SMILES: CS(=O)(=O)N1CCN(Cc2cc3nc(-c4c(F)ccc5[nH]ccc45)nc(N4CCOCC4)c3s2)CC1

- Ki [1]: 0.0049 µM
- IC50 [4]: 0.017 µM
SMILES: CN(C)C1CCN(Cc2cc3nc(-c4cccc5[nH]ccc45)nc(N4CCOCC4)c3s2)CC1

- clearance [5]: 7 mL/min/kg
- bioavailability [6]: 97%
- IC50 [7]: 0.111 µM
SMILES: Cn1cc(-c2ccc3c(c2)N(C2=NC4CC(C)(C)NC(=O)C4S2)CCO3)cn1 (stereo not given)

- IC50 ([1]; read-out: IC50): < 0.1 µM
SMILES: CC(=O)Nc1nc(C)c(-c2ccc(Cl)c(S(=O)(=O)N[C@@H](C)C(=O)OC3CCCC3)c2)s1

- Ki [1]: 0.1 µM
SMILES: CC(=O)NCCNS(=O)(=O)c1ccc(-c2sc(NC(C)=O)nc2C)o1

- IC50 ([1]; read-out: IC50): 0.027 µM
SMILES: COc1ccc(-c2ccc3c(n2)N(C2=NC(=O)C(C)(C)S2)CCO3)cc1OC

- IC50 ([1]; read-out: IC50): < 2 µM
SMILES: COc1ccc(-c2nn(C)c3nc(N)nc(NCc4ccccc4)c23)cc1F

- pIC50 [1]: >= 5
- IC50 [10]: ≤ 10 µM
SMILES: COc1ccccc1S(=O)(=O)Nc1cc(-c2cc(NC(=O)c3csc(CN4C[C@@H](C)O[C@@H](C)C4)n3)c3cn[nH]c3c2)cnc1OC

- IC50 ([1]; read-out: IC50): < 0.1 µM
SMILES: Clc1ccc(-c2nc(N3CCOCC3)sc2-c2nnc[nH]2)c(Cl)c1

- IC50 ([1]; read-out: IC50): < 0.1 µM
SMILES: CC[C@H]1CN(c2sc(-c3nnc[nH]3)c(-c3ccc(Cl)cc3Cl)c2C#N)CCO1

- pIC50 [1]: >= 5
SMILES: Cc1nc(C(=O)Nc2cc(-c3cnc4[nH]nc(S(C)(=O)=O)c4c3)cc3[nH]ncc23)cs1
